According to US5358951A, “Angiotensin II receptor blocking 2, 3, 6 substituted quinazolinones” (American Cyanamid Company, priority 1993, dated 1994):

Tested on: vasopressor response of angiotensin II
Assay: AII Challenge: antagonism of angiotensin II vasopressor response;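 as to Response Average Change: post-dose Angiotensin II-evoked rise in systolic blood pressure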
Format: in vivo
Details: for inhibition in vivo at 3 mg/kg / inhibition in vivo at 5 mg/kg: Rattus norvegicus; for inhibition in vivo at 3 mg/kg: iv; for inhibition in vivo at 5 mg/kg: po
Method in brief: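 Conscious male SHR (16-20 weeks) with aortic and caval cannulae received angiotensin II at 0.05 and 0.1 ug/kg i.v. before and 30-300 min after compound dosing (i.v., i.p. or oral). Blockade is expressed as % of each rat's predose rise in systolic pressure.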

[1] = 3 mg/kg I.V., AII 0.05 mcg/kg IV, 30 min post dose
[2] = 3 mg/kg I.V., AII 0.05 mcg/kg IV, 90 min post dose
[3] = 3 mg/kg I.V., AII 0.05 mcg/kg IV, 180 min post dose
[4] = 3 mg/kg I.V., AII 0.05 mcg/kg IV, 240 min post dose
[5] = 3 mg/kg I.V., AII 0.05 mcg/kg IV, 300 min post dose
[6] = 3 mg/kg I.V., AII 0.1 mcg/kg IV, 30 min post dose
[7] = 3 mg/kg I.V., AII 0.1 mcg/kg IV, 60 min post dose
[8] = 3 mg/kg I.V., AII 0.1 mcg/kg IV, 90 min post dose
[9] = 3 mg/kg I.V., AII 0.1 mcg/kg IV, 120 min post dose
[10] = 3 mg/kg I.V., AII 0.1 mcg/kg IV, 180 min post dose
[11] = 3 mg/kg I.V., AII 0.1 mcg/kg IV, 240 min post dose
[12] = 3 mg/kg I.V., AII 0.1 mcg/kg IV, 300 min post dose
[13] = 5 mg/kg P.O., AII 0.05 mcg/kg IV, 30 min post dose
[14] = 5 mg/kg P.O., AII 0.05 mcg/kg IV, 60 min post dose
[15] = 5 mg/kg P.O., AII 0.05 mcg/kg IV, 120 min post dose
[16] = 5 mg/kg P.O., AII 0.05 mcg/kg IV, 180 min post dose
[17] = 5 mg/kg P.O., AII 0.1 mcg/kg IV, 30 min post dose
[18] = 5 mg/kg P.O., AII 0.1 mcg/kg IV, 60 min post dose
[19] = 5 mg/kg P.O., AII 0.1 mcg/kg IV, 90 min post dose
[20] = 5 mg/kg P.O., AII 0.1 mcg/kg IV, 120 min post dose
[21] = 5 mg/kg P.O., AII 0.1 mcg/kg IV, 180 min post dose
[22] = 0.5 h, 3 mg/kg I.V., AII 0.05 mcg/kg IV, 30 min post dose
[23] = 0.5 h, 3 mg/kg I.V., AII 0.1 mcg/kg IV, 30 min post dose
[24] = 1 h, 3 mg/kg I.V., AII 0.1 mcg/kg IV, 60 min post dose
[25] = 2 h, 3 mg/kg I.V., AII 0.1 mcg/kg IV, 120 min post dose
[26] = 3 h, 3 mg/kg I.V., AII 0.05 mcg/kg IV, 180 min post dose
[27] = 3 h, 3 mg/kg I.V., AII 0.1 mcg/kg IV, 180 min post dose
[28] = 4 h, 3 mg/kg I.V., AII 0.05 mcg/kg IV, 240 min post dose
[29] = 4 h, 3 mg/kg I.V., AII 0.1 mcg/kg IV, 240 min post dose
[30] = 5 h, 3 mg/kg I.V., AII 0.05 mcg/kg IV, 300 min post dose
[31] = 5 h, 3 mg/kg I.V., AII 0.1 mcg/kg IV, 300 min post dose
[32] = […], 3 mg/kg I.V., AII 0.05 mcg/kg IV, 90 min post dose
[33] = […], 3 mg/kg I.V., AII 0.1 mcg/kg IV, 90 min post dose
[34] = 0.5 h, 5 mg/kg P.O., AII 0.05 mcg/kg IV, 30 min post dose
[35] = 0.5 h, 5 mg/kg P.O., AII 0.1 mcg/kg IV, 30 min post dose
[36] = 1 h, 5 mg/kg P.O., AII 0.05 mcg/kg IV, 60 min post dose
[37] = 1 h, 5 mg/kg P.O., AII 0.1 mcg/kg IV, 60 min post dose
[38] = 2 h, 5 mg/kg P.O., AII 0.05 mcg/kg IV, 120 min post dose
[39] = 2 h, 5 mg/kg P.O., AII 0.1 mcg/kg IV, 120 min post dose
[40] = 3 h, 5 mg/kg P.O., AII 0.05 mcg/kg IV, 180 min post dose
[41] = 3 h, 5 mg/kg P.O., AII 0.1 mcg/kg IV, 180 min post dose
[42] = […], 5 mg/kg P.O., AII 0.1 mcg/kg IV, 90 min post dose

CCCCc1nc2ccc(C3(C)CC4c5ccccc5CCN4O3)cc2c(=O)n1Cc1ccc(-c2ccccc2-c2nnn[nH]2)cc1 (stereo not drawn) [Example 64, Cis and Trans-2-Butyl-6-(1,5,6,10b-tetrahydro-2-methyl-2H-isoxazolo[3,2-a]isoquinolin-2-yl)-3-[[2'-(1H-tetrazol-5-yl][1,1'-biphenyl]-4-yl]methyl]-4(3H)-quinazolinone]
Response Average Change [1]: 2.5 mmHg | Response Average Change (3 mg/kg I.V., AII 0.05 mcg/kg IV, 60 min post dose): 2.5 mmHg | Response Average Change [2]: 7.5 mmHg | Response Average Change [3]: 7.5 mmHg | Response Average Change [4]: 18 mmHg | Response Average Change [5]: 7.5 mmHg | Response Average Change [6]: 5 mmHg | Response Average Change [7]: 5 mmHg | Response Average Change [8]: 7.5 mmHg | Response Average Change [9]: 10 mmHg | Response Average Change [10]: 11 mmHg | Response Average Change [11]: 12.5 mmHg | Response Average Change [12]: 18.5 mmHg | Response Average Change (3 mg/kg I.V., AII 0.5 mcg/kg IV, 120 min post dose): 5 mmHg | Response Average Change [13]: 15 mmHg | Response Average Change [14]: 18.5 mmHg | Response Average Change [15]: 20 mmHg | Response Average Change [16]: 17.5 mmHg | Response Average Change [17]: 27.5 mmHg | Response Average Change [18]: 23.5 mmHg | Response Average Change [19]: 22 mmHg | Response Average Change [20]: 20 mmHg | Response Average Change [21]: 24 mmHg | Response Average Change (5 mg/kg P.O., AII 0.5 mcg/kg IV, 90 min post dose): 20 mmHg | inhibition in vivo at 3 mg/kg [22]: 93% | inhibition in vivo at 3 mg/kg [23]: 91% | inhibition in vivo at 3 mg/kg (1 h, 3 mg/kg I.V., AII 0.05 mcg/kg IV, 60 min post dose): 93% | inhibition in vivo at 3 mg/kg [24]: 91% | inhibition in vivo at 3 mg/kg [25]: 81% | inhibition in vivo at 3 mg/kg (2 h, 3 mg/kg I.V., AII 0.5 mcg/kg IV, 120 min post dose): 86% | inhibition in vivo at 3 mg/kg [26]: 79% | inhibition in vivo at 3 mg/kg [27]: 80% | inhibition in vivo at 3 mg/kg [28]: 51% | inhibition in vivo at 3 mg/kg [29]: 77% | inhibition in vivo at 3 mg/kg [30]: 79% | inhibition in vivo at 3 mg/kg [31]: 66% | inhibition in vivo at 3 mg/kg [32]: 79% | inhibition in vivo at 3 mg/kg [33]: 86% | inhibition in vivo at 5 mg/kg [34]: 54% | inhibition in vivo at 5 mg/kg [35]: 25% | inhibition in vivo at 5 mg/kg [36]: 43% | inhibition in vivo at 5 mg/kg [37]: 36% | inhibition in vivo at 5 mg/kg [38]: 38% | inhibition in vivo at 5 mg/kg [39]: 45% | inhibition in vivo at 5 mg/kg [40]: 46% | inhibition in vivo at 5 mg/kg [41]: 34% | inhibition in vivo at 5 mg/kg [42]: 40% | inhibition in vivo at 5 mg/kg ([…], 5 mg/kg P.O., AII 0.5 mcg/kg IV, 90 min post dose): 38%

CCCCc1nc2ccc([C@@H]3C[C@H]4c5ccccc5CCN4O3)cc2c(=O)n1Cc1ccc(-c2ccccc2-c2nnn[nH]2)cc1 (relative stereo) [Example 63, Cis-2-Butyl-6-(1,5,6,10b-tetrahydro-2H-isoxazolo[3,2-a]isoquinolin-2-yl)-3-[[2'-(1H-tetrazol5-yl)[1,1'-biphenyl]-4-yl]methyl]-4(3H)-quinazolinone]
Response Average Change [1]: 10.5 mmHg | Response Average Change [2]: 10 mmHg | Response Average Change (3 mg/kg I.V., AII 0.05 mcg/kg IV, 120 min post dose): 10 mmHg | Response Average Change [3]: 17.5 mmHg | Response Average Change [4]: 12.5 mmHg | Response Average Change [5]: 23.5 mmHg | Response Average Change [6]: 10 mmHg | Response Average Change [7]: 15 mmHg | Response Average Change [8]: 17.5 mmHg | Response Average Change [9]: 17.5 mmHg | Response Average Change [10]: 22.5 mmHg | Response Average Change [11]: 23 mmHg | Response Average Change [12]: 25 mmHg | Response Average Change (3 mg/kg I.V., AII 0.5 mcg/kg IV, 60 min post dose): 10 mmHg | Response Average Change [13]: 22.5 mmHg | Response Average Change [14]: 30 mmHg | Response Average Change (5 mg/kg P.O., AII 0.05 mcg/kg IV, 90 min post dose): 20 mmHg | Response Average Change [15]: 16.5 mmHg | Response Average Change [16]: 20 mmHg | Response Average Change [17]: 35 mmHg | Response Average Change [18]: 42.5 mmHg | Response Average Change [19]: 34 mmHg | Response Average Change [20]: 32.5 mmHg | Response Average Change [21]: 24 mmHg | inhibition in vivo at 3 mg/kg [22]: 70% | inhibition in vivo at 3 mg/kg [23]: 73% | inhibition in vivo at 3 mg/kg [24]: 60% | inhibition in vivo at 3 mg/kg (1 h, 3 mg/kg I.V., AII 0.5 mcg/kg IV, 60 min post dose): 71% | inhibition in vivo at 3 mg/kg (2 h, 3 mg/kg I.V., AII 0.05 mcg/kg IV, 120 min post dose): 71% | inhibition in vivo at 3 mg/kg [25]: 53% | inhibition in vivo at 3 mg/kg [26]: 50% | inhibition in vivo at 3 mg/kg [27]: 40% | inhibition in vivo at 3 mg/kg [28]: 64% | inhibition in vivo at 3 mg/kg [29]: 39% | inhibition in vivo at 3 mg/kg [30]: 33% | inhibition in vivo at 3 mg/kg [31]: 33% | inhibition in vivo at 3 mg/kg [32]: 71% | inhibition in vivo at 3 mg/kg [33]: 53% | inhibition in vivo at 5 mg/kg [34]: 49% | inhibition in vivo at 5 mg/kg [35]: 18% | inhibition in vivo at 5 mg/kg [36]: 32% | inhibition in vivo at 5 mg/kg [37]: 0% | inhibition in vivo at 5 mg/kg [38]: 63% | inhibition in vivo at 5 mg/kg [39]: 24% | inhibition in vivo at 5 mg/kg [40]: 55% | inhibition in vivo at 5 mg/kg [41]: 44% | inhibition in vivo at 5 mg/kg ([…], 5 mg/kg P.O., AII 0.05 mcg/kg IV, 90 min post dose): 55% | inhibition in vivo at 5 mg/kg [42]: 20%
